Data: US9062088B2, “CDK-inhibiting pyrrolopyrimidine carboxamide derivative or pharmaceutically acceptable salt thereof, and pharmaceutical composition containing the same as active ingredient for preventing or treating hepatocellular carcinoma” (SNU R&DB Foundation, priority 2010, dated 2015)
Several values for one entry are separate records, joined by “and”; a condition that tells them apart may be missing. Equal values may be shown once.

Tests used:
[1] = tested on: SNU-354 xenografted tumor; test: SNU-354 cancer xenograft, tumor growth; assay type: in vivo; conditions: 5 times/week for 3 weeks, nude mice
Procedure: Male nude mice at 5˜6 weeks were purchased from Central Lab. Animal Inc. (Republic of Korea). The mice were raised in the test animal laboratory at College of Pharmacy, Seoul National University. All the experiments with test animals were performed by the protocol set by Institute of Laboratory Animal Resources, Seoul National University. 1×10^7 cells of the human hepatocellular carcinoma cell line SNU-354 were suspended in 200 μl of PBS, which was injected into the right front paw of the mouse by subcutaneous injection, followed by observation until the xenograft tumor grew to 100±30 mm^3. The mice having tumors reaching the proper size were divided into three groups (n=8). One of the groups was used as the control (treated with vehicle) and the other two groups were treated with the compound of Example 2 at the concentrations of 4 mg/kg and 20 mg/kg respectively, once a day for 3 weeks (5 times/week) by intraperitoneal injection. The control group was treated with 5% ethanol and 30% polyethylene glycol 200 (Fluka, Netherlands). The administration schedule was marked on data. Tumor size, body weight and other conditions of the animal were observed every day until the tumor size reached 2000 mm^3. The tumor size was calculated by V=a×b×c×π/6 (a=long axis of the tumor, b=short axis of the tumor, c=height of the tumor). 33 days after the treatment, the mice were sacrificed. […]

[2] = molecular target: T1, Cdk1/cyclin B (Homo sapiens, UniProt P06493); test: In vitro kinase activity assay, histone H1 phosphorylation by Cdk1/cyclin B; assay type: biochemical; conditions: for Phosphorylation (%) Cdk1: 0 nM = 100%
T1 construct: purchased Upstate
Procedure: To kinase assay buffer (50 mM Tris (pH 7.4), 10 mM magnesium chloride, 1 mM EGTA, 40 mM β-glycerophosphate, 0.1 mM Na3VO4, 1 mM DTT, 0.1 μg/mL leupeptin, 0.1 μg/mL pepstatin A, 0.1 μg/mL antipain and 1 mM phenylmethylsulfonyl fluoride) were added 5 μg histone H1 as a substrate, 20 ng Cdk1/cyclin B or 40 ng Cdk2/cyclin A recombinant protein (Upstate, NY, USA) as an enzyme, 2.5 μCi [γ-32P]ATP, and 100 μM MgAc/ATP. The total reaction volume was adjusted to 50 μl. The compound of Example 2 was added to the reaction mixture, followed by inducing kinase reaction at 30° C. for 20 minutes. Upon completion of the reaction, the reaction mixture proceeded to electrophoresis on 12% SDS-polyacrylamide gel. Phosphorylation levels of Cdk1 and Cdk2 over the concentrations of the compound of Example 2 were confirmed by autoradiography, and the results are shown in FIG. 1, FIG. 2, and Table 1.
The intensity of bands was analyzed by densitometry (GS-800, Bio-Rad).

[3] = tested on: Mcl-1, survivin, XIAP mRNA; test: RT-PCR of Mcl-1, survivin, XIAP mRNA in SNU-354 cells; assay type: cell-based, human; conditions: FIG. 14
Procedure: Total RNA was extracted from SNU-354 cells treated with the compound of Example 2 according to the conventional method. For reverse transcription, 5 μg of the extracted RNA and M-MLV reverse transcriptase (Promega Corporation, WI, USA) were used. Reverse Transcription was induced at 37° C. for 1 hour, followed by further reaction at 95° C. for 5 minutes. For PCR, 5 μl of cDNA obtained from the reverse transcription was used as a template and Taq DNA polymerase was used. Total reaction volume was 50 μl. PCR was performed as follows; predenaturation at 95° C. for 5 minutes, denaturation at 95° C. for 1 minute, annealing at 56° C. for 1 minute, polymerization at 72° C. for 1 minute, 30 cycles from denaturation to polymerization, and final extension at 72° C. for 10 minutes. After PCR, the PCR products were analyzed by electrophoresis on 1% agarose gel. The forward primer for Mcl-1 was 5′-CGGTAATCGGACTCAACCTC-3′ (SEQ ID NO: 1) and the reverse primer was 5′-CCT CCT TCT CCG TAG CCA A-3′ (SEQ ID NO: 2). The forward primer for XIAP was 5′-AGTGGTAGTCCTGTTTCAGCATCA-3′ (SEQ ID NO: 3) and the reverse primer was 5′-CCG CAC GGT ATC TCC TTC A-3′ (SEQ ID NO: 4). The forward primer for survivin was 5′-TGC CTG GCA GCC CTT TC-3′ (SEQ ID NO: 5) and the reverse primer was 5′-CCTCCAAGAAGGGCCAGTTC-3′ (SEQ ID NO. 6). […]

[4] = tested on: p-Nucleolin (Cdk1); test: Western blotting of p-nucleolin (Cdk1) in SNU-354 cells; assay type: cell-based, human
Procedure: (§1) SNU-354 cells were cultured in RPMI 1640 (Invitrogen, CA, USA) supplemented with 10% FBS (Invitrogen) and antibiotics/antimycotics (Invitrogen) in a 5% CO2 incubator at 37° C. […]
(§2) After treating the compound of Example 2 to SNU-354 cells, cell pellet was lysed with lysis buffer (0.5% triton X-100, 20 mM Tris-HCl (pH 7.5), 2 mM magnesium chloride, 1 mM DTT, 1 mM EGTA, 50 mM β-glycerophosphate, 25 mM sodium fluoride, 1 mM Na3VO4, 2 μg/mL leupeptin, 2 μg/mL pepstatin A, 100 μg/mL phenylmethylsulfonyl fluoride, and 1 μg/mL antipain) at 4° C. for 1 hour, followed by quantification of protein. A proper amount of protein was electrophoresed on SDS-PAGE gel and then transferred onto polyvinylidene difluoride membrane (Millipore Co., Bedford, Mass.). The membrane was reacted in inhibiting solution (PBS, 5% skim milk, 0.1% tween-20) at room temperature for 1˜2 hours. The membrane was reacted with the primary antibody (goat anti-phospho-Rb, rabbit anti-nucleolin) diluted in the inhibiting solution (1:1000). Then, the membrane was washed with PBST, followed by reaction with the proper secondary antibody (horseradish peroxidase (HRP) conjugated) at room temperature for 1 hour.

[5] = tested on: p-Rb (Cdk2); test: Western blotting of p-Rb (Cdk2) in SNU-354 cells; assay type: cell-based, human
Procedure: as §1, §2

T1 sequence (P06493 whole entry): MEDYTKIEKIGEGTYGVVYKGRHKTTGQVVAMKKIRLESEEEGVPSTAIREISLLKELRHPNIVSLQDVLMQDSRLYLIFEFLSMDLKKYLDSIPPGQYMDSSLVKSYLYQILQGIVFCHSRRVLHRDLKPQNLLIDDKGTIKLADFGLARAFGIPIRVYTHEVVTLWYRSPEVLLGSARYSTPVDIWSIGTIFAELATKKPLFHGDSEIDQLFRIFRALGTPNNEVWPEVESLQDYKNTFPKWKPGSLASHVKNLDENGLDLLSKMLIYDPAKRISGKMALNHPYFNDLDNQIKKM
T1 sequence (P14635 whole entry partner): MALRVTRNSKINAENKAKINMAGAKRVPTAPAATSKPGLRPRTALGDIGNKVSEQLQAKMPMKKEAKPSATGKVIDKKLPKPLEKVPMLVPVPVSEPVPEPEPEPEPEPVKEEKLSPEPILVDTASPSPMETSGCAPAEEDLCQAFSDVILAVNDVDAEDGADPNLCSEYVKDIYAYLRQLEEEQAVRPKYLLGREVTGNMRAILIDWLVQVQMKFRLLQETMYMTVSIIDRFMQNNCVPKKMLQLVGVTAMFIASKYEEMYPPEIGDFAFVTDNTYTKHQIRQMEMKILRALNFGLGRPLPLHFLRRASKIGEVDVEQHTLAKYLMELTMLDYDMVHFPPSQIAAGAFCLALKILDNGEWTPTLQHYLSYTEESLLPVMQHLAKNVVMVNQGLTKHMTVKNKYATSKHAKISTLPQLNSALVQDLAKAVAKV

## CC(C)C(=O)OC[C@@H]1O[C@H](n2cnc(N)c3c(C(N)=O)c(Br)nc2-3)[C@H](O)[C@H]1O [Example 2, ((2S,3R,4R,5S)-5-(4-amino-6-bromo-5-carbamoyl-1H-pyrrolo[2,3-d]pyrimidin-1-yl)-3,4-dihydroxy-tetrahydrofuran-2-yl)methyl isobutyrate]
[1]; 4 mg/kg/day intraperitoneal
  growth of the tumor reduced at average, compared with the control: 15%
[1]; 20 mg/kg/day intraperitoneal
  growth of the tumor reduced at average, compared with the control: 47%
[2]; 10 nM
  Phosphorylation (%) Cdk1: 100% and 99.4%
[2]; 20 nM
  Phosphorylation (%) Cdk1: 92.2%
[2]; 40 nM
  Phosphorylation (%) Cdk1: 74.1%
[2]; 50 nM
  Phosphorylation (%) Cdk1: 50%
[2]; 60 nM
  Phosphorylation (%) Cdk1: 41.6%
[2]; 80 nM
  Phosphorylation (%) Cdk1: 15.3%
[2]; 100 nM
  Phosphorylation (%) Cdk1: 4.3%
[2]; histone H1 phosphorylation
  IC50: 50 nM
[3]
  Mcl-1, survivin and XIAP mRNA: decrease of mRNA
[4]; treatment time 6 (hours)
  Phosphorylation (%) p-Nucleolin (Cdk1): 96.9%
[4]; treatment time 12 (hours)
  Phosphorylation (%) p-Nucleolin (Cdk1): 11.7%
[4]; treatment time 18 (hours)
  Phosphorylation (%) p-Nucleolin (Cdk1): 3.1%
[4]; treatment time 24 (hours)
  Phosphorylation (%) p-Nucleolin (Cdk1): 3.0%
[5]; treatment time 6 (hours)
  Phosphorylation (%) p-Rb(Cdk2): 3.6%
[5]; treatment time 12 (hours)
  Phosphorylation (%) p-Rb(Cdk2): 2.7%
[5]; treatment time 18 (hours)
  Phosphorylation (%) p-Rb(Cdk2): 0.6%
[5]; treatment time 24 (hours)
  Phosphorylation (%) p-Rb(Cdk2): 0.3%
